How the values were obtained:
Format in all cases: in vivo
[1] = test system: bedstraw (Galium aparine); assay: Test B pre-/postemergence; set-up: key: 0 is no effect; 10 is complete control; conditions: Postemergence
Outline: (§1)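 Scored visually 0 (none) to 10 (complete control) against untreated plants after twelve to sixteen greenhouse days. Test chemicals, formulated in surfactant-containing non-phytotoxic solvent, applied to soil after planting and, separately, onto 1- to 4-leaf (2–18 cm) plants.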

[2] = test system: blackgrass (Alopecurus myosuroides); assay: Test B pre-/postemergence; set-up: key: 0 is no effect; 10 is complete control; conditions: for Blackgrass plant response rating: Preemergence
Outline: as §1

[3] = test system: broadleaf signalgrass (Brachiaria decumbens); assay: Test B pre-/postemergence; set-up: key: 0 is no effect; 10 is complete control; conditions: for B. signalgrass plant response rating: Preemergence
Outline: as §1

[4] = test system: cocklebur (Xanthium strumarium); assay: Test B pre-/postemergence; set-up: key: 0 is no effect; 10 is complete control; conditions: for Cocklebur plant response rating: Preemergence
Outline: as §1

corn (Zea mays) = assay: Test B pre-/postemergence; set-up: key: 0 is no effect; 10 is complete control; conditions: for Corn plant response rating: Preemergence
Outline: as §1

[5] = test system: crabgrass (Digitaria sanguinalis); assay: Test B pre-/postemergence; set-up: key: 0 is no effect; 10 is complete control; conditions: for Crabgrass plant response rating: Preemergence
Outline: as §1

[6] = test system: giant foxtail (Setaria faberii); assay: Test B pre-/postemergence; set-up: key: 0 is no effect; 10 is complete control
Outline: as §1

[7] = test system: momingglory (Ipomoea hederacea); assay: Test B pre-/postemergence; set-up: key: 0 is no effect; 10 is complete control
Outline: as §1

[8] = test system: pigweed (Amaranthus retroflexus); assay: Test B pre-/postemergence; set-up: key: 0 is no effect; 10 is complete control
Outline: as §1

[9] = test system: purple nutsedge (Cyperus rotundus); assay: Test B pre-/postemergence; set-up: key: 0 is no effect; 10 is complete control
Outline: as §1

rape (Brassica napus) = assay: Test B pre-/postemergence; set-up: key: 0 is no effect; 10 is complete control
Outline: as §1

soybean (Glycine max) = assay: Test B pre-/postemergence; set-up: key: 0 is no effect; 10 is complete control
Outline: as §1

[10] = test system: sugar beet (Beta vulgaris); assay: Test B pre-/postemergence; set-up: key: 0 is no effect; 10 is complete control
Outline: as §1

[11] = test system: velvetleaf (Abutilon theophrasti); assay: Test B pre-/postemergence; set-up: key: 0 is no effect; 10 is complete control
Outline: as §1

[12] = test system: wheat (Triticum aestivum); assay: Test B pre-/postemergence; set-up: key: 0 is no effect; 10 is complete control
Outline: as §1

wild oat (Avena fatua) = assay: Test B pre-/postemergence; set-up: key: 0 is no effect; 10 is complete control
Outline: as §1

[13] = test system: bamyardgrass (Echinochloa crus-galli); assay: Test B flood test
Outline: (§2)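 Flood test on plants grown to the 2-leaf stage; treated plants kept in greenhouse twelve to sixteen days, then visually rated against controls on a 0 (no effect) to 10 (complete control) scale.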

[14] = test system: duck salad (Heteranthera limosa); assay: Test B flood test
Outline: as §2

rice (Oryza sativa) = assay: Test B flood test
Outline: as §2

[15] = test system: smallflower flatsedge (Cyperus difformis); assay: Test B flood test
Outline: as §2

[16] = Rate 250 g/ha, Postemergence (so in the source)
[17] = Rate 62 g/ha, Postemergence (flood test)
[18] = Rate 125 g/ha, Postemergence, flood test
[19] = Rate 250 g/ha, Postemergence (flood test species)
[20] = Rate 125 g/ha, Postemergence section (flood test species)

## Cc1cnc(-c2ccc(F)c(Cl)c2)nc1Cc1cccc(C#N)c1 [Compound 40]
[1]; Rate 62 g/ha
  Plant response rating, Bedstraw: 4
[1]; Rate 125 g/ha
  Plant response rating, Bedstraw: 4
[1]; Rate 250 g/ha
  Plant response rating, Bedstraw: 6
[2]; Rate 62 g/ha, Postemergence
  Plant response rating, Blackgrass: 2
[2]; Rate 62 g/ha
  Blackgrass plant response rating: 0
[2]; Rate 125 g/ha, Postemergence
  Plant response rating, Blackgrass: 2
[2]; Rate 125 g/ha
  Blackgrass plant response rating: 1
[2]; Rate 250 g/ha, Postemergence
  Plant response rating, Blackgrass: 2
[2]; [16]
  Plant response rating, Blackgrass: 2
[3]; Rate 62 g/ha, Postemergence
  Plant response rating, B. signalgrass: 1
[3]; Rate 62 g/ha
  B. signalgrass plant response rating: 0
[3]; Rate 125 g/ha, Postemergence
  Plant response rating, B. signalgrass: 1
[3]; Rate 125 g/ha
  B. signalgrass plant response rating: 0
[3]; Rate 250 g/ha, Postemergence
  Plant response rating, B. signalgrass: 1
[3]; Rate 250 g/ha, Postemergence as printed in head r139 (second section for compounds 26-50)
  Plant response rating, B. signalgrass: 1
[4]; Rate 62 g/ha, Postemergence
  Plant response rating, Cocklebur: 5
[4]; Rate 62 g/ha
  Cocklebur plant response rating: 0
[4]; Rate 125 g/ha, Postemergence
  Plant response rating, Cocklebur: 2
[4]; Rate 125 g/ha
  Cocklebur plant response rating: 0
[4]; Rate 250 g/ha, Postemergence
  Plant response rating, Cocklebur: 5
[4]; [16]
  Plant response rating, Cocklebur: 0
Corn (Zea mays); Rate 62 g/ha, Postemergence
  Plant response rating, Corn: 1
Corn (Zea mays); Rate 62 g/ha
  Corn plant response rating: 0
Corn (Zea mays); Rate 125 g/ha, Postemergence
  Plant response rating, Corn: 1
Corn (Zea mays); Rate 125 g/ha
  Corn plant response rating: 0
Corn (Zea mays); Rate 250 g/ha, Postemergence
  Plant response rating, Corn: 1
Corn (Zea mays); [16]
  Plant response rating, Corn: 0
[5]; Rate 62 g/ha, Postemergence
  Plant response rating, Crabgrass: 1
[5]; Rate 62 g/ha
  Crabgrass plant response rating: 0
[5]; Rate 125 g/ha, Postemergence
  Plant response rating, Crabgrass: 1
[5]; Rate 125 g/ha
  Crabgrass plant response rating: 0
[5]; Rate 250 g/ha, Postemergence
  Plant response rating, Crabgrass: 3
[5]; [16]
  Plant response rating, Crabgrass: 0
[6]; Rate 62 g/ha, Postemergence
  Plant response rating, Giant foxtail: 0
[6]; Rate 62 g/ha, Preemergence
  Giant foxtail plant response rating: 0
[6]; Rate 125 g/ha, Postemergence
  Giant foxtail plant response rating: 0
[6]; Rate 125 g/ha, Preemergence
  Giant foxtail plant response rating: 1
[6]; Rate 250 g/ha, Postemergence
  Plant response rating, Giant foxtail: 2
[6]; [16]
  Plant response rating, Giant foxtail: 3
[7]; Rate 62 g/ha, Postemergence
  Plant response rating, Morningglory: 2
[7]; Rate 62 g/ha, Preemergence
  Morningglory plant response rating: 0
[7]; Rate 125 g/ha, Postemergence
  Morningglory plant response rating: 2
[7]; Rate 125 g/ha, Preemergence
  Morningglory plant response rating: 1
[7]; Rate 250 g/ha, Postemergence
  Plant response rating, Morningglory: 5
[7]; [16]
  Plant response rating, Morningglory: 2
[8]; Rate 62 g/ha, Postemergence
  Plant response rating, Redroot pigweed: 2
[8]; Rate 62 g/ha, Preemergence
  Redroot pigweed plant response rating: 0
[8]; Rate 125 g/ha, Postemergence
  Redroot pigweed plant response rating: 3
[8]; Rate 125 g/ha, Preemergence
  Redroot pigweed plant response rating: 1
[8]; Rate 250 g/ha, Postemergence
  Plant response rating, Redroot pigweed: 6
[8]; [16]
  Plant response rating, Redroot pigweed: 2
[9]; Rate 62 g/ha, Preemergence
  Nutsedge plant response rating: 0
[9]; [16]
  Plant response rating, Nutsedge: 0
Rape (Brassica napus); Rate 62 g/ha, Postemergence
  Plant response rating, Rape: 6
Rape (Brassica napus); Rate 62 g/ha, Preemergence
  Rape plant response rating: 0
Rape (Brassica napus); Rate 125 g/ha, Postemergence
  Rape plant response rating: 6
Rape (Brassica napus); Rate 125 g/ha, Preemergence
  Rape plant response rating: 1
Rape (Brassica napus); Rate 250 g/ha, Postemergence
  Plant response rating, Rape: 8
Rape (Brassica napus); [16]
  Plant response rating, Rape: 2
Soybean (Glycine max); Rate 62 g/ha, Postemergence
  Plant response rating, Soybean: 2
Soybean (Glycine max); Rate 62 g/ha, Preemergence
  Soybean plant response rating: 0
Soybean (Glycine max); Rate 125 g/ha, Postemergence
  Soybean plant response rating: 2
Soybean (Glycine max); Rate 125 g/ha, Preemergence
  Plant response rating, Soybean: 0
Soybean (Glycine max); Rate 250 g/ha, Postemergence
  Plant response rating, Soybean: 2
Soybean (Glycine max); [16]
  Plant response rating, Soybean: 0
[10]; Rate 62 g/ha, Postemergence
  Plant response rating, Sugarbeets: 10
[10]; Rate 62 g/ha, Preemergence
  Sugarbeets plant response rating: 2
[10]; Rate 125 g/ha, Postemergence
  Sugarbeets plant response rating: 10
[10]; Rate 125 g/ha, Preemergence
  Plant response rating, Sugarbeets: 6
[10]; Rate 250 g/ha, Postemergence
  Plant response rating, Sugarbeets: 10
[10]; [16]
  Plant response rating, Sugarbeets: 6
[11]; Rate 62 g/ha, Postemergence
  Plant response rating, Velvetleaf: 1
[11]; Rate 62 g/ha, Preemergence
  Velvetleaf plant response rating: 0
[11]; Rate 125 g/ha, Postemergence
  Velvetleaf plant response rating: 2
[11]; Rate 125 g/ha, Preemergence
  Plant response rating, Velvetleaf: 0
[11]; Rate 250 g/ha, Postemergence
  Plant response rating, Velvetleaf: 2
[11]; [16]
  Plant response rating, Velvetleaf: 1
[12]; Rate 62 g/ha, Postemergence
  Wheat plant response rating: 1
[12]; Rate 62 g/ha, Preemergence
  Wheat plant response rating: 0
[12]; Rate 125 g/ha, Postemergence
  Wheat plant response rating: 1
[12]; Rate 125 g/ha, Preemergence
  Plant response rating, Wheat: 0
[12]; Rate 250 g/ha, Postemergence
  Plant response rating, Wheat: 2
[12]; [16]
  Plant response rating, Wheat: 0
Wild oat (Avena fatua); Rate 62 g/ha, Postemergence
  Wild oats plant response rating: 0
Wild oat (Avena fatua); Rate 62 g/ha, Preemergence
  Wild oats plant response rating: 0
Wild oat (Avena fatua); Rate 125 g/ha, Postemergence
  Wild oats plant response rating: 0
Wild oat (Avena fatua); Rate 125 g/ha, Preemergence
  Plant response rating, Wild oats: 0
Wild oat (Avena fatua); Rate 250 g/ha, Postemergence
  Plant response rating, Wild oats: 1
Wild oat (Avena fatua); [16]
  Plant response rating, Wild oats: 1
[13]; [17]
  Plant response rating, Barnyardgrass: 2
[13]; [18]
  Plant response rating, Barnyardgrass: 2
[13]; [19]
  Plant response rating, Barnyardgrass: 2
[14]; [17]
  Plant response rating, Ducksalad: 1
[14]; [18]
  Plant response rating, Ducksalad: 5
[14]; [19]
  Plant response rating, Ducksalad: 7
Rice (Oryza sativa); [17]
  Plant response rating, Rice: 1
Rice (Oryza sativa); [20]
  Rice plant response rating: 1
Rice (Oryza sativa); [19]
  Plant response rating, Rice: 2
[15]; [17]
  Plant response rating, S. Flatsedge: 2
[15]; [20]
  S. Flatsedge plant response rating: 4
[15]; [19]
  Plant response rating, S. Flatsedge: 5

From patent US6525001B1, “Substituted pyrimidine and pyridine herbicides” (Mid-American Commercialization Corporation, priority 1997, dated 2003)
